Results from US5492924A, “Phorbine derivatives and their use in the diagnosis and therapy of cancer” (Fox Chase Cancer Center, priority 1993, dated 1996).

Tests used:
EMT-6 mouse tumor cells [1] = assay: Photosensitizing effectiveness with EMT-6 tumor cells in vitro (photoinactivation); type: cell-based; conditions: for Photoinactivation rate (1/D50): 670 nm (pheophorbide) or 750 nm (bacteriopheophorbide), one hour exposure
Procedure: EMT-6 mouse tumor cells were exposed in slowly-stirred suspension cultures to various concentrations of Ph6-OH, Ph4-OH and BPh4-OH for one hour prior to illumination with graded light doses of specific wavelength. The pheophorbide and bacteriopheophorbide compounds were illuminated with 670 and 750 nm light, respectively. Illuminated cell populations were plated into Petri dishes containing appropriate media for colony forming assays. The surviving fraction (SF) of cells after various PDT treatments was computed from the ratio, [plating efficiency (treated cells)]/[plating efficiency (control cells)]. For each photosensitizer dosage investigated,survival curves of log SF versus light dose were constructed and analyzed. The light dose required to kill 50%, 90% and 99% of tumor cell populations (D50, D10 and D01) were determined. The reciprocal of light dose required to kill 50% of a tumor cell population (1/D50) was used as a photoinactivation rate for each concentration and as a basis for comparison of photosensitizer efficacy. Inactivation rates for the various photosensitizing agents activated with 630 (Photofrin® ), 670 (Ph6-OH) and 750 (BPh4-OH) nm light are shown in the accompanying Figure. Rates of photoinactivation and relative effectiveness of the pheophorbide and bacteriopheophorbide compounds compared to Photofrin®are given in Table C. The inactivation rate for Photofrin® was extrapolated from data generated at much higher drug concentrations utilizing the same experimental protocol. The relative effectiveness of Ph4-OH and BPh4-OH are approximately 800X and approximately 1150X, respectively.
For each concentration of photosensitizer compound studied, there was a threshold dose of light below which little or no cell killing occurred. […] For example, for PH6-OH at 0.1, 0.3 and 0.5 μM, the threshold light dose was 0.75, 0.18 and 0.08J/cm^2, respectively.

[2] = system: UNA mouse endothelial cells; assay: Photosensitizer drug uptake into UNA endothelial cells; type: cell-based
Procedure: (§1) EMT-6 mouse tumor and UNA mouse endothelial cells were exposed to various concentrations of the photosensitizer compounds of the invention in slowly-stirred suspension cultures. […] Cells were lysed and solubilized by mixing 1 mL of cell suspension with 1 mL 4% Triton X-100. After 2 hours of extraction, samples were mixed with 2 mL 95% EtOH and photosensitizer levels quantified by spectrofluorometry using Eex =400 nm and Eem =670 nm. […] For both cell lines, uptake is dependent upon photosensitizer concentration in the media and the larger volume tumor cells show the higher rates of uptake. If drug uptake rate is normalized to a standard cell volume, EMT-6 tumor cells bind the photosensitizer at 1.25 times that of UNA endothelial cells.

EMT-6 tumors = assay: EMT-6 tumor regrowth assay after PDT; type: in vivo, C.B17/Icr scid mice; conditions: for Regrowth time (time to grow to two times the treatment volume): 300J of 670 nm one hr after administration
Procedure: (§2) Photosensitizer efficacy was measured with two different tumor models. Solid EMT-6 tumors (~0.1 cm^3) growing on the backs of C.B17/Icr scid mice were exposed to 300J of 670 nm light one hour after the iv administration of Ph4-OH. Light was generated by a laser, transported to the tumor-bearing mouse via an optical fiber and focused onto the tumor surface through a diffusing lens. The light dose rate at the tumor surface was 200-400 mW/cm^2 and the field size encompassed the tumor cross section. […] EMT-6 tumor response was quantified by two different assays. At various times after PDT treatment, animals were sacrified, tumors were removed in toto from the animal and mechanically disrupted. Tumor cells were released by an enzyme digestion procedure. Released tumor cells were plated into Petri dishes for colony forming assays.
Tumor response to PDT was also quantified by tumor regrowth assay. The volumes of both untreated and PDT-treated tumors in animals were estimated from caliper measurements made three times a week. Tumor response in vivo was characterized by acute inflammatory reaction observed on days 1 and 2 after treatment followed by tumor volume shrinkage and eventual cure or regrowth. These responses from individual tumors were quantified in days after treatment required for tumors to reach two times their treatment volume. […] Tumor response is a function of photosensitizer dosage. […] In this assay, some tumor cures are consistently observed when growth delay times are 15 days and greater.
TIME FOR EMT-6 TUMORS TO GROW TO TWO
TIMES THE TREATMENT VOLUME AFTER 300J
OF 670 NM DELIVERED ONE HR AFTER I.V.
PHOTOSENSITIZER ADMINISTRATION

EMT-6 mouse tumor cells [3] = assay: Photosensitizer drug uptake into EMT-6 tumor cells; type: cell-based; conditions: for Initial binding rate: EMT-6
Procedure: as §1

EMT-6 tumor cells = assay: Plating efficiency (colony forming assay) of EMT-6 tumor cells from tumors treated in vivo by PDT; design: species or system C.B17/Icr scid mice; conditions: for Plating efficiency, excision at 24 hr / Plating efficiency, immediate excision: 300J of 670 nm light
Procedure: as §2
IN VITRO PLATING EFFICIENCIES OF EMT-6
TUMOR CELLS FROM TUMORS TREATED IN VIVO
BY PDT WITH 300J OF 670 NM LIGHT

[4] = system: Dunning prostate carcinomas (R3327-AT); assay: Tumor response and cure of Dunning prostate carcinomas after PDT; type: in vivo, Fischer X Copenhagen rats
Description: Tumor response and cure was also investigated with 4-5 cm^3 Dunning prostate carcinomas (R3327-AT) growing in Fischer X Copenhagen rats. These tumors were illuminated by laser light delivered by a laterally-diffusing optical fiber applicator which contained seven fibers in an hexagonal array of equilateral triangles with 0.9 cm spacing.

[5] = .3 μM, compared to Photofrin (= 1)

CCC1c2cc3[nH]c4c(c3C)C(=O)C(C(=O)OC)c4c3nc(cc4[nH]c(cc(n2)C1C)c(C(C)=O)c4C)C(C)C3CCC(=O)NCCCCO (stereo not shown) [BPh4-OH, 9-Acetyl-14-ethyl-13,14-dihydro-21-(methoxycarbonyl)-4,8,13,18-tetramethyl-20-oxo-N-(4-hydroxybutyl)-3-phorbinepropanamide]
Photoinactivation rate (1/D50) (EMT-6 mouse tumor cells [1]; .3 μM): 10.4 (J/cm^2)^-1 | Relative effectiveness (EMT-6 mouse tumor cells [1]; [5]): 1156 | Relative effectiveness (EMT-6 mouse tumor cells [1]; compared to Photofrin): approximately 1150 X

C=Cc1c(C)c2cc3nc(c4c5[nH]c(cc6nc(cc1[nH]2)C(C)=C6CC)c(C)c5C(=O)C4C(=O)OC)C(CCC(=O)NCCCCO)C3C (stereo not shown) [Ph4-OH, 9-Ethenyl-14-ethyl-21-(methoxycarbonyl)-4,8,13,18-tetramethyl-20-oxo-N-(4-hydroxybutyl)-3-phorbinepropanamide]
Initial binding rate ([2]; 0.5 μM): 0.067 μg/10^6 cells/hr | Initial binding rate ([2]; 1.0 μM): 0.038 μg/10^6 cells/hr | Regrowth time (time to grow to two times the treatment volume) (EMT-6 tumors; 0.45 mg/kg i.v.): 4.3 ± 0.4 days | Regrowth time (time to grow to two times the treatment volume) (EMT-6 tumors; 0.75 mg/kg i.v.): 8.6 ± 0.5 days | Regrowth time (time to grow to two times the treatment volume) (EMT-6 tumors; 1.00 mg/kg i.v.): 12.4 ± 0.6 days | Regrowth time (time to grow to two times the treatment volume) (EMT-6 tumors; 1.50 mg/kg i.v.): > 22.0 days | Tumor response (compared with Ph6-OH) (EMT-6 tumors; 300J of 670 nm light, in words): superior tumor response | Potency relative to Photofrin for equal tumor growth delay (EMT-6 tumors; relative to Photofrin, photosensitizer dosage and light dose): at least fifty times more potent | Initial binding rate (EMT-6 mouse tumor cells [3]; 0.5 μM): 0.097 μg/10^6 cells/hr | Initial binding rate (EMT-6 mouse tumor cells [3]; 1.0 μM): 0.068 μg/10^6 cells/hr | Uptake rate normalized to standard cell volume, EMT-6 tumor cells relative to UNA endothelial cells (EMT-6 mouse tumor cells [3]; ratio EMT-6/UNA): 1.25 times | Plating efficiency, excision at 24 hr (EMT-6 tumor cells; 1 mg/kg iv): 0.001 ± 0.001 | Plating efficiency, immediate excision (EMT-6 tumor cells; 1 mg/kg iv): 0.55 ± 0.07 | Plating efficiency, excision at 24 hr (EMT-6 tumor cells; 2 mg/kg iv): ≤ 0.0001 | Plating efficiency, immediate excision (EMT-6 tumor cells; 2 mg/kg iv): 0.48 ± 0.09 | Tumor cell plating efficiency when tumors excised 24 hr after PDT (EMT-6 tumor cells; 24 hr after PDT, in words): decreased dramatically in proportion to photosensitizer concentration and light dose | Tumor cell killing when tumors excised immediately after PDT (EMT-6 tumor cells; immediately after PDT, in words): little or no killing observed | Potency relative to Photofrin for producing same extent of tumor cell kill in vivo (EMT-6 tumor cells; relative to Photofrin, photosensitizer and light doses): at least fifty times more potent | Photoinactivation rate (1/D50) (EMT-6 mouse tumor cells [1]; .3 μM): 7.30 (J/cm^2)^-1 | Relative effectiveness (EMT-6 mouse tumor cells [1]; [5]): 811 | Relative effectiveness (EMT-6 mouse tumor cells [1]; compared to Photofrin): approximately 800 X | Tumor necrosis and response ([4]; 2 mg/kg iv, 400J of 670 nm light one hour after administration, 4-5 cm^3 tumors): Complete tumor necrosis and response | Potency relative to Photofrin for inducing tumor necrosis and cure ([4]; relative to Photofrin): at least eighty times more potent

C=Cc1c(C)c2cc3nc(c4c5[nH]c(cc6nc(cc1[nH]2)C(C)=C6CC)c(C)c5C(=O)C4C(=O)OC)C(CCC(=O)NCCCCCCO)C3C (stereo not shown) [Ph6-OH, 9-Ethenyl-14-ethyl-21-(methoxycarbonyl)-4,8,13,18-tetramethyl-20-oxo-N-(6-hydroxyhexyl)-3-phorbinepropanamide]
Regrowth time (time to grow to two times the treatment volume) (EMT-6 tumors; 0.60 mg/kg i.v.): 4.7 ± 0.7 days | Regrowth time (time to grow to two times the treatment volume) (EMT-6 tumors; 1.00 mg/kg i.v.): 7.9 ± 1.3 days | Regrowth time (time to grow to two times the treatment volume) (EMT-6 tumors; 3.00 mg/kg i.v.): 25.5 ± 2.9 days | Threshold light dose below which little or no cell killing occurred (EMT-6 mouse tumor cells [1]; 0.1 μM): 0.75 J/cm^2 | Threshold light dose below which little or no cell killing occurred (EMT-6 mouse tumor cells [1]; 0.3 μM): 0.18 J/cm^2 | Threshold light dose below which little or no cell killing occurred (EMT-6 mouse tumor cells [1]; 0.5 μM): 0.08 J/cm^2 | Photoinactivation rate (1/D50) (EMT-6 mouse tumor cells [1]; .3 μM): 5.10 (J/cm^2)^-1 | Relative effectiveness (EMT-6 mouse tumor cells [1]; [5]): 567
